This note sets out measurements from PubChem BioAssay (NCI).

What is called GI50 is the concentration giving 50% growth inhibition. As usually defined, the TGI is the concentration at which net growth stops. Read a high TGI as less potent growth arrest.

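Following 48 hours of exposure in 96-well plates, responses at five concentrations were used to interpolate endpoints linearly. The concentration for 50% growth inhibition is given as GI50. TGI: total growth inhibition.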

Some test systems named below: SF-539 CNS; UO-31 renal; NCI-H226 lung; HCT-116 colon; UACC-62 melanoma; HCT-15 colon; SK-MEL-2 melanoma; SK-MEL-28 melanoma; HOP-92 NSCLC; A498 renal.
Holding throughout (assay): DTP human tumour cell line panel, 48 h

As for `CCCCCCCC(=O)SCC/C=C/[C@@H]1CC(=O)NCc2cccc(n2)CN(Cc2ccc(Cl)cc2)CC(=O)N[C@@H](C(C)C)C(=O)O1`, the GI50 was 16.3 µM in the experiment on SF-539 CNS; 6.27 µM with UO-31 renal; 22 µM in the experiment with NCI-H226 lung; 4.23 µM with HCT-116 colon; 5.85 µM in the experiment with UACC-62 melanoma; 20.1 µM in the experiment on HCT-15 colon. Besides, the GI50 was 13.3 µM in the experiment on SK-MEL-2 melanoma, 5.04 µM in the experiment with SK-MEL-28 melanoma, 8.76 µM in the experiment with HOP-92 NSCLC and 8.67 µM in the experiment on A498 renal. Further, the TGI was more than 100 µM with SF-539 CNS; 48.9 µM in the experiment with UO-31 renal; more than 100 µM in the experiment with NCI-H226 lung; 15.6 µM in the experiment on HCT-116 colon; 26.5 µM in the experiment on UACC-62 melanoma; more than 100 µM in the experiment with HCT-15 colon. In addition, the TGI was more than 100 µM in the experiment on SK-MEL-2 melanoma, more than 100 µM in the experiment on SK-MEL-28 melanoma, 41.8 µM in the experiment with HOP-92 NSCLC and 22.8 µM in the experiment with A498 renal.

Take `Cc1cc(CC(O)(C(F)(F)F)C(F)(F)F)cc(CC(O)(C(F)(F)F)C(F)(F)F)n1`: the TGI amounted to 8.71 µM in the experiment with SF-539 CNS; 4.02 µM in the experiment on UO-31 renal; 8.13 µM with NCI-H226 lung; 6.09 µM in the experiment on HCT-116 colon; 12.5 µM in the experiment on UACC-62 melanoma; 12.6 µM in the experiment with HCT-15 colon. The TGI in the experiment on SK-MEL-2 melanoma was found to be 5.45 µM; in the experiment on SK-MEL-28 melanoma it was 9.54 µM; in the experiment on HOP-92 NSCLC, 5.48 µM; with A498 renal it was 7.87 µM.

Turning to `COc1cc(C2CC(c3ccc(C)cc3)=NN2C(C)=O)ccc1Oc1ccnc2cc(Cl)ccc12` (centres undefined), the GI50 in the experiment on SF-539 CNS was 11.7 µM; in the experiment on NCI-H226 lung it was 5.38 µM; in the experiment on HCT-116 colon, 0.681 µM; in the experiment with UACC-62 melanoma it was more than 100 µM; with HCT-15 colon, more than 100 µM; with SK-MEL-2 melanoma, 15.8 µM. For the same compound, the GI50 in the experiment on SK-MEL-28 melanoma was more than 100 µM; with HOP-92 NSCLC it was 30.1 µM; with A498 renal, 13.1 µM. For the same compound, the TGI was more than 100 µM in the experiment on SF-539 CNS; more than 100 µM in the experiment with NCI-H226 lung; more than 100 µM with HCT-116 colon; more than 100 µM with UACC-62 melanoma; more than 100 µM with HCT-15 colon; 43.2 µM in the experiment on SK-MEL-2 melanoma. Moreover, the results for the TGI with SK-MEL-28 melanoma, in the experiment on HOP-92 NSCLC and with A498 renal were more than 100 µM, more than 100 µM and 78 µM, respectively.

For the compound `Cc1cc(C)c2nc(Nc3nc(C)c(C)c(=O)[nH]3)nc(C)c2c1`, the GI50 in the experiment on SF-539 CNS is 2.54 µM; with UO-31 renal it was 1.82 µM; in the experiment with NCI-H226 lung it was 2.93 µM; with HCT-116 colon, 2.94 µM; with UACC-62 melanoma, 2.08 µM; with HCT-15 colon, 2.94 µM. Further, the GI50 with SK-MEL-2 melanoma is 2.27 µM; with SK-MEL-28 melanoma it was 2.35 µM; in the experiment on HOP-92 NSCLC, 2.48 µM; with A498 renal, 2.02 µM. For the same compound, the TGI was 10.3 µM with SF-539 CNS; 5.86 µM in the experiment on UO-31 renal; 15.4 µM in the experiment on NCI-H226 lung; 12.9 µM with HCT-116 colon; 5.5 µM with UACC-62 melanoma; 14.5 µM in the experiment with HCT-15 colon. Further, the TGI is 7.09 µM in the experiment with SK-MEL-2 melanoma, 7.64 µM in the experiment with SK-MEL-28 melanoma, 9.11 µM in the experiment with HOP-92 NSCLC and 5.54 µM in the experiment on A498 renal.

On to `CC1CCC(O)/C=C/C(=O)OC(C)C(O)/C=C/C(=O)O1` (centres undefined), for which the TGI in the experiment with SF-539 CNS, in the experiment on UO-31 renal, in the experiment with NCI-H226 lung, in the experiment with HCT-116 colon, with UACC-62 melanoma and with HCT-15 colon was more than 100 µM in each case. Besides, the concentration for total growth inhibition (TGI) with SK-MEL-2 melanoma, in the experiment with SK-MEL-28 melanoma, in the experiment on HOP-92 NSCLC and with A498 renal was more than 100 µM each time.

As to `COc1cc(OC)cc(-c2n[nH]nc2-c2ccc3c(c2)OCO3)c1`, the GI50 with SF-539 CNS was 0.181 µM; with UO-31 renal, 0.661 µM; with NCI-H226 lung it was 5.15 µM; in the experiment on HCT-116 colon it was 0.181 µM; in the experiment on UACC-62 melanoma, 3.09 µM; in the experiment on HCT-15 colon, 0.125 µM. Moreover, the GI50 with SK-MEL-2 melanoma was 0.245 µM; in the experiment with SK-MEL-28 melanoma, 4.44 µM; in the experiment on HOP-92 NSCLC, 0.122 µM; in the experiment with A498 renal, 0.343 µM. For the same compound, the TGI in the experiment on SF-539 CNS was 0.546 µM; in the experiment with UO-31 renal, 72.7 µM; in the experiment with NCI-H226 lung, more than 100 µM; in the experiment on HCT-116 colon it was 15.6 µM; with UACC-62 melanoma it was 30.8 µM; in the experiment with HCT-15 colon, more than 100 µM. The TGI in the experiment on SK-MEL-2 melanoma was found to be 55.7 µM; in the experiment on SK-MEL-28 melanoma, 43.5 µM; with HOP-92 NSCLC, 1.59 µM; in the experiment with A498 renal, 9.32 µM.

As for `O=C(O)/C=C/C(=O)Nc1cccc2c1-c1ccccc1C2=O`, the TGI was 19.2 µM in the experiment with SF-539 CNS; more than 100 µM with UO-31 renal; more than 100 µM with NCI-H226 lung; more than 100 µM with HCT-116 colon; more than 100 µM in the experiment with UACC-62 melanoma; more than 100 µM in the experiment on HCT-15 colon. The TGI in the experiment with SK-MEL-2 melanoma was 32.9 µM; in the experiment on SK-MEL-28 melanoma it was more than 100 µM; in the experiment with HOP-92 NSCLC, more than 100 µM; with A498 renal, more than 100 µM.

In the case of `COc1ccc(OC)c(-c2cc(-c3ccc(Cl)cc3)nn2-c2ccc(S(N)(=O)=O)cc2)c1`, the GI50 with SF-539 CNS was 17.6 µM; with UO-31 renal it was 21.8 µM; in the experiment with NCI-H226 lung it was 11.4 µM; in the experiment with UACC-62 melanoma it was 2.98 µM; in the experiment on HCT-15 colon, 2.84 µM; in the experiment with SK-MEL-2 melanoma, 35.1 µM. The GI50 is 19.2 µM with HOP-92 NSCLC and 13.9 µM in the experiment on A498 renal. Further, the TGI with SF-539 CNS was 34.3 µM; in the experiment on UO-31 renal it was more than 100 µM; in the experiment with NCI-H226 lung, 26.1 µM; in the experiment on UACC-62 melanoma it was 12.1 µM; in the experiment with HCT-15 colon, 10.7 µM; with SK-MEL-2 melanoma, more than 100 µM. Also, the TGI came out at 62.5 µM with HOP-92 NSCLC and 29.7 µM in the experiment on A498 renal.

For the compound `CC(=O)OC1CC[C@@]2(C)C(CC(OC3OC(CO)C(O)C(O)C3O)[C@]3(C)C2CCC24CC23CC[C@H]4C(C)CC(O)[C@@H](O)C(C)(C)O)C1(C)C` (some centres undefined), the concentration for total growth inhibition (TGI) in the experiment with SF-539 CNS was 19.1 µM; in the experiment with UO-31 renal, more than 50 µM; in the experiment on NCI-H226 lung, 48.5 µM; in the experiment with HCT-116 colon, 18.9 µM; in the experiment with UACC-62 melanoma it was 16.6 µM; in the experiment on HCT-15 colon, more than 50 µM. The TGI in the experiment with SK-MEL-2 melanoma worked out at 18.8 µM; in the experiment with SK-MEL-28 melanoma, 17.4 µM; with HOP-92 NSCLC it was 19.5 µM; in the experiment with A498 renal it was 45.3 µM.
